For data set [1], the system named is Leishmania donovani. Description: Antileishmanial activity against Leishmania donovani NHOM/IN/80/DD8 promastigote forms assessed as reduction in parasite growth after 72 hrs by MTT assay. Format: functional. Conditions: NHOM/IN/80/DD8, 72 h.
Data set [2] in a line: Antioxidant activity assessed as DPPH free radical scavenging activity after 30 mins. In kind it is functional.
For data set [3], the system named is HeLa. Nature of the data set: Cytotoxicity against human HeLa cells at 500 ug/ml after 72 hrs by MTT assay. In kind it is cell-based.
Data set [4] deals with Leishmania donovani. Description: Antileishmanial activity against Leishmania donovani NHOM/IN/80/DD8 promastigote forms assessed as reduction in parasite growth up to 500 uM after 72 hrs by MTT assay. Format: functional.

Active and inactive are the calls of the source. No cut-off for these calls is given here.

In the case of `CCc1ccc(/C=N/n2c(S)nnc2-c2cnccn2)cc1`, the 50% inhibitory concentration (IC50) in data set [1] was determined as 201 µM; in data set [2], 47.7 µM.
Regarding `Fc1cccc(NC(=S)Nn2c(S)nnc2-c2cnccn2)c1`, the 50% inhibitory concentration (IC50) in data set [1] was 287 µM; in data set [2], 14 µM.
Consider `CN(C)c1ccc(/C=N/n2c(S)nnc2-c2cnccn2)cc1`, for which the results for the half-inhibitory concentration (IC50) in data set [1] and in data set [2] were 113 µM and 14 µM, respectively.
Consider `O=C1O[C@H]([C@@H](O)CO)C(O)=C1O` [ASCORBIC ACID], for which, in data set [2], the concentration for half-maximal inhibition (IC50) stood at 14 µM.
As to `S=C(Nc1ccc(Cl)c(Cl)c1)Nn1c(S)nnc1-c1cnccn1`, the half-maximal inhibitory concentration (IC50) in data set [1] was determined as 229 µM; in data set [2], 81.2 µM.
For `FC(F)(F)c1ccc(NC(=S)Nn2c(S)nnc2-c2cnccn2)cc1`, the IC50 in data set [1] is 289 µM; in data set [2], 58.8 µM.
Regarding `Sc1nnc(-c2cnccn2)n1/N=C/c1ccc(Cl)cc1Cl`, the 50% inhibitory concentration (IC50) in data set [1] came to 241 µM; in data set [2], 81.2 µM.
In the case of `Oc1ccc(/C=N/n2c(S)nnc2-c2cnccn2)cc1`, the IC50 in data set [1] is 79 µM; in data set [2], 58.9 µM. Moreover, the Activity result in data set [3] is on record as “Non-Toxic”.
As to `Sc1nnc(-c2cnccn2)n1/N=C/c1ccc(Cl)cc1`, the results for the IC50 in data set [1] and in data set [2] were 198 µM and 39.8 µM, respectively.
For `Fc1ccc(NC(=S)Nn2c(S)nnc2-c2cnccn2)c(F)c1`, in that order: 176 µM and 58.9 µM.
In the same order, the values of `Oc1ccccc1/C=N/n1c(S)nnc1-c1cnccn1` are 102 µM and 75.9 µM.
For `S=C(Nc1ccc2ccccc2c1)Nn1c(S)nnc1-c1cnccn1`, in that order: 336 µM and 75.9 µM.
As for `S=C(Nc1ccccc1)Nn1c(S)nnc1-c1cnccn1`, the concentration for half-maximal inhibition (IC50) in data set [2] turned out to be 58.8 µM. Besides, in data set [4], the outcome was inactive.
Regarding `CCOc1ccc(/C=N/n2c(S)nnc2-c2cnccn2)cc1OC`, the IC50 in data set [1] amounted to 190 µM; in data set [2] it was 58.8 µM.
`Fc1ccc(NC(=S)Nn2c(S)nnc2-c2cnccn2)cc1`: the figures for the concentration for half-maximal inhibition (IC50) in data set [1] and in data set [2] were 322 µM and 69.2 µM, respectively.
In the case of `O=[N+]([O-])c1cccc(/C=N/n2c(S)nnc2-c2cnccn2)c1`, the IC50 in data set [1] turned out to be 347 µM; in data set [2] it was 72.4 µM.
In the same order, the values of `Fc1ccc(/C=N/n2c(S)nnc2-c2cnccn2)cc1` are 382 µM and 58.8 µM.
Take `Sc1nnc(-c2cnccn2)n1/N=C/c1ccccc1`: the IC50 in data set [1] amounted to 95.2 µM; in data set [2], 52.4 µM.
In the same order, the values of `Oc1ccc(/C=N/n2c(S)nnc2-c2cnccn2)c(O)c1` are 106 µM and 75.9 µM.
Consider `S=C(Nc1ccc(Cl)cc1Cl)Nn1c(S)nnc1-c1cnccn1`, for which the concentration for half-maximal inhibition (IC50) in data set [1] is 79 µM; in data set [2] it was 58.9 µM.
Take `N#Cc1ccc(/C=N/n2c(S)nnc2-c2cnccn2)cc1`: the IC50 in data set [1] amounted to 99 µM; in data set [2] it was 47.8 µM.
`S=C(Nc1ccc(Cl)cc1)Nn1c(S)nnc1-c1cnccn1`: the half-inhibitory concentration (IC50) in data set [2] was 75.9 µM. Moreover, in data set [4], the outcome was inactive.
As for `Oc1ccc2ccccc2c1/C=N/n1c(S)nnc1-c1cnccn1`, the 50% inhibitory concentration (IC50) in data set [1] was found to be 178 µM; in data set [2] it was 69.2 µM.

Source of the values: ChEMBL document CHEMBL4052753, “Antileishmanial potential of fused 5-(pyrazin-2-yl)-4H-1,2,4-triazole-3-thiols: Synthesis, biological evaluations and computational studies” (Bioorg Med Chem Lett, 2017).
